Results: patent publication EP0587374A2, “Sulfated sterol glycosides and their use against viral infections” (VIROSTAT (NA) NV, priority 1992, dated 1994)
“And” between values parts separate entries of the source, which are not always exact repeats. Identical values can stand only once. Like-named read-outs stand apart in the source and are kept apart here.

Columns and labels:
[1] = tested on: Feline Infectious Peritonitis Virus
[2] = tested on: Peripheral blood lymphocytes; assay: In vitro cytotoxicity, Trypan Blue exclusion after 3 days of culture; conditions: for % Viability: 3 days, means of 4 counts
Experimental: Peripheral blood lymphocytes were prepared from normal blood. Cells were cultured for 3 days in complete medium [(RPMI, a commercially available so-called standard salt solution) + 10 % foetal calf serum (FCS) + […]] in the presence/absence of phytohemagglutinin (PHA). Duplicate wells were set up. Incubation was at 37°C and 5 % CO₂.
On the third day, cell viabilities were determined using the Trypan Blue exclusion test.
Those products which were water soluble, were made up at 8 mg/mℓ stocks in sterile distilled water and diluted 1:10 in RPMI medium and again diluted 1:10 directly in the wells containing the cells in complete medium. The final concentrations were thus 80 µg/mℓ. For the lower dilutions, the 8 mg/mℓ stock was diluted 1:2 or 1:4 or 1:8 in water before being diluted in the RPMI medium.
For those products which were DMSO-soluble, the stocks were made'up at 8 mg/mℓ in 100 % DMSO. This stock was diluted 1:10 in 100 % FCS and diluted 1:10 directly in the wells containing the cells in RPMI medium only. The final concentrations were thus 10 % FCS and 1 % DMSO. For the lower dilutions, the 8 mg/mℓ stock was diluted 1:2 or 1:4 or 1:8 with DMSO before the FCS dilution step.
This stock was diluted in water to yield a working stock of 2 mg/mℓ. The 2 mg/ml stock was diluted 1:20 or 1:10 or 1:5 or 1:2.5 in water and again 1:10 in the wells to give the 10, 20, 40 or 80 µg/mℓ final concentrations respectively.

blood clotting = conditions: 50 µg/mℓ, prothrombin time in vitro
Experimental: Prothrombin Time was measured according to standard techniques using CaCl₂, citrated-plasma and prothrombin.

[3] = tested on: feline immunodeficiency virus (FIV); assay: In vivo anti-FIV test in an experimentally infected cat: antibody titer, haematology, lymphocyte subsets; conditions: 5 mg/kg s.c. weekly from week 10; for WBC: pre-treatment weeks 0/6: 11.8/13.2; for CD4⁺: pre-treatment weeks 0/6: 460/350; for CD8⁺: pre-treatment weeks 0/6: 1115/721; for CD3⁺: pre-treatment weeks 0/6: 1742/1219; for Lymph.: lymphocytes, pre-treatment weeks 0/6: 2600/2380
Experimental: The substance was tested at a dosage rate of 5 mg/kg body mass on a cat infected with feline immunodeficiency virus, administered by subcutaneous injection at weekly intervals over a period of 13 weeks.
A cat which had been experimentally infected with a strain of feline immunodeficiency virus (FIV) using the blood of a naturally infected cat was used for this experiment. […] The haematological and immunological parameters were monitored during the dosage period as described below.
A specimen of blood was used to determine the antibody titer to FIV using a commercial kit (CITE Combo, Indexx Corporation, Portland). The serum was diluted with saline solution and each serum diulation was tested in order to determine the highest dilution yielding positive results. This dilution was subsequently used as the cut-off titer of positivity. The titer of antibodies was determined at regular intervals during the treatment period.
Whole blood was diluted by 50% with RPMI medium and layered on to Histopaque (Sigma) and centrifuged at 200 gravities for 25 minutes. The cells at the interface were collected and washed three times with RPMI. These cells represented the mononuclear cells of the blood and were used for determining the percentage of T-cells and the subsets thereof as described hereunder.
Cells (1 x 10⁶) were incubated in test tubes with aliquots of monoclonal antibody reactive with CD3, CD4 and CD8 antigens. The mixtures of different antibodies were conducted as follows: CD3-FITC + CD4-PE CD3-FITC + CD8-PE
The tubes were incubated for 20 minutes at room temperature and following two washes with phosphate-buffered saline solution (PBS), the cells were fixed with 400 µℓ PBS containing 0.5% formaldehyde.
Cell fluoresence was assessed using a FACScan cytometer. […] The analysis was conducted using the LYSIS II software programme after having set a lymphocyte gate on the FSC versus SSC scattergram. All the results were expressed as percentage positive lymphocytes, i.e. cells which co-expressed CD3 and CD4 or CD3 and CD8 markers. In this way, CD4⁺ T cells, and in a similar fashion, CD8⁺ NK cells, were excluded from the CD3⁺ CD8⁺ T-suppressor cells.
Absolute cell numbers were calculated from basic haematology conducted on an aliquot of the whole blood. From the percentage lymphocyte differential counts, absolute values for positive cells could be calculated. This was conducted for all subsets analyzed.

[4] = Experimental: The test animal received food and water without restriction.
On Tuesdays and Fridays blood samples were taken for blood chemistry, haematology and the measurement of trough plasma levels of the drug. These samples were taken prior to the administration of the drug, but at intervals as indicated in Figure 2 (which is a histogram of blood concentration levels against time) and Table 5. Blood samples were also taken 5, 10 and 15 minutes after drug adminstration in order to assess the peak plasma concentrations achieved. After 30 days the baboon was sacrificed and tissue samples were collected for testing.

Feline Herpes virus = conditions: 50 µg/mℓ
[5] = haematology summary, following initial drug administration

With `CC[C@H](CC[C@@H](C)[C@H]1CC[C@H]2[C@@H]3CC=C4C[C@@H](O[C@@H]5O[C@H](COS(=O)(=O)O)[C@@H](OS(=O)(=O)O)[C@H](OS(=O)(=O)O)[C@H]5OS(=O)(=O)O)CC[C@]4(C)[C@H]3CC[C@]12C)C(C)C` [BSSG-(SO₄⁻)₄, β-Sitosteryl β-D-glucoside tetra-sulphate] the viral cytopathic effect ([1]; 5, 12.5, 25 and 50 µg/mℓ, 10²-, […]) was “completely inhibited”, the “cytopathic effect of the drug alone” value ([1]; without virus) was “no cytopathic effect” and the “% Viability” value ([2]; Cells + PHA + 10 µg/mℓ) was 80%. The “% Viability” value ([2]; Cells + PHA + 20 µg/mℓ) was 85%, the “% Viability” value ([2]; Cells + PHA + 40 µg/mℓ) was 82% and the “% Viability” value ([2]; Cells + PHA + 80 µg/mℓ) was 83%. The “viability of test cells, trend with concentration” value ([2]; from 10 to 80 µg/mℓ) was “no tendency to toxicity”, the “effect on blood clotting” value (blood clotting) was “did not affect blood clotting” and the “inhibition of P24 protein synthesis” value (HIV-1; 50 µg/mℓ, from a number of tests) was 80 - 100%. For the same compound, the “concentration that inhibits P24 protein synthesis by 50%” value (HIV-1; by extrapolation of the data in Table 3 (4 days), may vary with lymphocyte batch and HIV-1 titre) was 9 µg/mL, the “anti-HIV-1 effect (in words)” value (HIV-1; in terms of P24 protein production, Tables 1-3) was “marked anti-HIV-1 effects” and the “% INHIBITION OF P24 PROTEIN PRODUCTION” value (HIV-1; test concentration 0.78 µg/mℓ, duration 4 days) was 4%. For the same compound, the “% INHIBITION OF P24 PROTEIN PRODUCTION” value (HIV-1; test concentration 3.125 µg/mℓ, duration 4 days) was 27%, the “% INHIBITION OF P24 PROTEIN PRODUCTION” value (HIV-1; test concentration 10 µg/mℓ, duration 6 days) was 55% and the “% INHIBITION OF P24 PROTEIN PRODUCTION” value (HIV-1; test concentration 12.5 µg/mℓ, duration 4 days) was 65%. For the same compound, the “% INHIBITION OF P24 PROTEIN PRODUCTION” value (HIV-1; test concentration 25 µg/mℓ, duration 4 days) was 61% and 88%, the “% INHIBITION OF P24 PROTEIN PRODUCTION” value (HIV-1; test concentration 25 µg/mℓ, duration 6 days) was 91% and the “% INHIBITION OF P24 PROTEIN PRODUCTION” value (HIV-1; test concentration 50 µg/mℓ, duration 4 days) was 83% and 96%. For the same compound, the “% INHIBITION OF P24 PROTEIN PRODUCTION” value (HIV-1; test concentration 50 µg/mℓ, duration 6 days) was 100%, the “% INHIBITION OF P24 PROTEIN PRODUCTION” value (HIV-1; test concentration 100 µg/mℓ, duration 4 days) was 99% and the WBC ([3]; time 12 weeks) was 14.7 x10⁹/ℓ. For the same compound, the “CD4⁺” value ([3]; time 12 weeks) was 315 µL, the “CD8⁺” value ([3]; time 12 weeks) was 432 µL and the “CD3⁺” value ([3]; time 12 weeks) was 964 µL. For the same compound, the WBC ([3]; time 17 weeks) was 14.0 x10⁹/ℓ, the “CD4⁺” value ([3]; time 17 weeks) was 763 µL and the “CD8⁺” value ([3]; time 17 weeks) was 1066 µL. The “CD3⁺” value ([3]; time 17 weeks) was 2035 µL, the WBC ([3]; time 23 weeks) was 15.5 x10⁹/ℓ and the “CD4⁺” value ([3]; time 23 weeks) was 850 µL. For the same compound, the “CD8⁺” value ([3]; time 23 weeks) was 1610 µL, the “CD3⁺” value ([3]; time 23 weeks) was 2894 µL and the Lymph. ([3]; time 12 weeks) was 2940 µL. The Lymph. ([3]; time 17 weeks) was 3220 µL, the Lymph. ([3]; time 23 weeks) was 3990 µL and the behavioral characteristics ([4]; 5 mg/kg i.v. daily, period of treatment) was “remained unchanged”. The “BSSG-³⁵(SO₄⁻)₄ PLASMA LEVEL” value ([4]; 5 mg/kg i.v. daily, sample 3-4-92 (Fri: Pre IV), trough) was 56.0 µg/mL, the “BSSG-³⁵(SO₄⁻)₄ PLASMA LEVEL” value ([4]; 5 mg/kg i.v. daily, sample 7-4-92 (Tues: Pre IV), trough) was 71.0 µg/mL and the “BSSG-³⁵(SO₄⁻)₄ PLASMA LEVEL” value ([4]; 5 mg/kg i.v. daily, sample 10-4-92 (Fri: 10 min Post IV), peak) was 149.5 µg/mL. For the same compound, the “BSSG-³⁵(SO₄⁻)₄ PLASMA LEVEL” value ([4]; 5 mg/kg i.v. daily, sample 10-4-92 (Fri: Pre IV), trough) was 52.5 µg/mL, the “BSSG-³⁵(SO₄⁻)₄ PLASMA LEVEL” value ([4]; 5 mg/kg i.v. daily, sample 14-4-92 (Tues: 15 min Post IV), peak) was 149.7 µg/mL and the “BSSG-³⁵(SO₄⁻)₄ PLASMA LEVEL” value ([4]; 5 mg/kg i.v. daily, sample 14-4-92 (Tues: Pre IV), trough) was 65.0 µg/mL. The “BSSG-³⁵(SO₄⁻)₄ PLASMA LEVEL” value ([4]; 5 mg/kg i.v. daily, sample 15-4-92 (Wed: 4 hr Post IV)) was 72.5 µg/mL, the “BSSG-³⁵(SO₄⁻)₄ PLASMA LEVEL” value ([4]; 5 mg/kg i.v. daily, sample 27-3-92 (Fri: Pre IV), trough) was 60.3 µg/mL and the “BSSG-³⁵(SO₄⁻)₄ PLASMA LEVEL” value ([4]; 5 mg/kg i.v. daily, sample 31-3-92 (Tues: Pre IV), trough) was 59.0 µg/mL. The “24-hour post-dose-trough plasma levels” value ([4]; 5 mg/kg i.v. daily, subsequent samples of the study period) was over 50 µg/mL, the “BSSG-³⁵(SO₄⁻)₄ PLASMA LEVEL” value ([4]; 100 mg (5 mg/kg) i.v. daily Mon-Fri from 16-3-92, sample 24-3-92 (Tues: Pre IV), trough) was 33.8 µg/mL and the autopsy findings ([4]; after 30 days of 5 mg/kg i.v. daily) was “no organ discoloration or change in organ texture”. The “chemical pathology, overall conclusion” value ([4]; blood chemistry twice a week, Table 6) was “no direct proof that the changes occurring in time were due to direct toxicity of the substance”, the “Haemoglobin (Hb)” value ([4]; general decrease during drug administration from base-line 14.8) was 12.5 g/dL and the “haematocrit (Hct)” value ([4]; general decrease during drug administration from base-line 43.4) was 36.9%. The monocyte count ([4]; haematology summary, after the second week of drug administration, still present at the end) was “Absolute monocytopaenia”, the “total white cell count” value ([4]; haematology summary, following drug administration) was “slight increase in total white cell count but within normal range” and the lymphocyte count [4, 5] was “transient absolute lymphocytosis”. For the same compound, the platelet count [4, 5] was “transient decrease in platelet count (but still within normal range)”, the “haemolysis (Hb and Hct trend)” value ([4]; haematology summary, supported by biochemical and bone marrow iron findings) was “slight haemolysis” and the “FREE HAEMOGLOBIN CONCENTRATION” value ([4]; plasma, 5 mg/kg i.v. daily, sample 7-4-92 (Tues: Pre IV), before treatment 0.004, 0.005) was 0.005 mg/dL. For the same compound, the “plasma levels of the drug sustained” value ([4]; single daily i.v. injection of 5 mg/kg body mass over a month long period) was 50 to 170 µg/mL, the histological findings ([4]; tissue samples after 30 days of 5 mg/kg i.v. daily) was “not severe and were fairly non-specific” and the bone marrow cellularity ([4]; trephine biopsy after 30 days, slightly lower than that of an adult man) was “approximately 40%”. For the same compound, the “major routes of excretion” value ([4]; ³⁵S isotope in urine samples and faeces, high levels in the bile) was “via the kidney and the liver” and the “cytopathic effect of Feline Herpes virus” value (Feline Herpes virus) was “delayed by a day”.
